Experimental data taken from patent US4885239A, “Rapid differentiation of bacteria using polyether antibiotics” (Eastman Kodak Company, priority 1986, dated 1989).

Assays:
E. coli (gram -) [1] = assay: inhibition of the reduction of RIND XXXV (Examples 8 and 9), E. coli; type: cell-based, Escherichia coli (ATCC 25922); settings: 50 μl of 10 mg/ml antibiotic premixed with 1 ml cells (septamycin with calcium chloride), 30 minutes, 37° C., average of two replicates
Protocol: (§1) gram-negative bacteria Enterobacter cloacae (ATCC 23355), Escherichia coli (ATCC 25922), Proteus vulgaris (ATCC 13315), Klebsiella pneumoniae (ATCC 13883) and Pseudomonas aeruginosa (ATCC 27853), and gram-positive bacteria Staphylococcus aureus (ATCC 25923) and Streptococcus pyogenes (ATCC 19615), and brain heart infusion (BHI) broth from Difco Laboratories (Detroit, Mich.),
(§2) Bacterial suspensions were prepared by growing the cells in BHI to stationary phase overnight at 37° C. P. aeruginosa was grown with agitation. […]
(§3) Optical density readings (OD) were made at 635 nm at 0 minutes and after incubation at 37° C. for 30 minutes for all solutions, and the change (ΔOD) was determined. Table V below lists the results expressed as corrected percent inhibition of the reduction of RIND VII. The corrected percent inhibition was calculated by dividing the difference between ΔOD obtained from a Control test without antibiotic and the ΔOD of the test, by the ΔOD of the Control without antibiotic. All readings were corrected by subtracting readings of the appropriate background control. […]
(§4) Relative fluorescence was measured at an emission of 620 nm after excitation at 540 nm using a […] microfluor Reader, and the change in fluorescence (Δ relative fluorescence) after 30 minutes at 37° C. was determined as the average of two replicates.

[2] = test system: viable gram-positive and gram-negative bacteria; assay: differentiation of viable gram-positive and gram-negative bacteria (outcome in words); type: cell-based; settings: for differentiation of gram-positive and gram-negative bacteria: RIND XXXV, Examples 8 and 9; for differentiating gram-positive and gram-negative bacteria: RIND VII, Examples 2-3
Protocol: as §1
(§5) Bacterial suspensions were prepared by growing the cells in BHI to stationary phase overnight at 37° C. P. aeruginosa was grown with agitation. About 40 ml of overnight cultures were centrifuged, decanted and washed once with 0.05 molar potassium phosphate buffer or 0.05 molar N-2-hydroxyethylpiperazine-N'-2-ethanesulfonic acid (HEPES) buffer, pH 7.8, and resuspended in buffer.
TERGITOL 7 anionic surfactant was used to differentiate viable bacteria according to the prior art method. Various concentrations of TERGITOL 7 surfactant were mixed with a 10% glucose solution (50 μl), 3-(4,5-dimethyl-2-thiazolyl)-2,5-diphenyl-2N-tetrazolium bromide (MTT) in methanol (25 μl at 5 mg/ml) or a RIND VII dispersion (1.5 ml) and phenazine methosulfate ETA (25 μl at 3 mg/ml methanol). The volume of each test solution was brought to 3 ml with potassium phosphate buffer. A cell suspension (100 μl at about 10^8 cells/ml) was then added. The solutions were incubated at 37° C. for 15 and 30 minutes in the presence of either E. coli, a gram (-) bacterium, or S. aureus, a gram (+) bacterium. The amount of dye formed was then determined visually and graded as follows: 0 indicates no dye formation, +/- indicates faint dye formation, 1+ indicates light dye formation, 2+ indicates moderate dye formation, 3+ indicates strong dye formation, and 4+ indicates very strong dye formation.
Calimycin, a polyether antibiotic, was similarly used with RIND VII in the differentiation of bacteria. Assays were performed as described above, except that 25 μl of 1 molar calcium chloride solution was added to each test solution and the P. aeruginosa response was measured in the presence of 10% yeast extract as the carbon source instead of glucose. The final concentration of calimycin in each test was 10^-3 molar.
(§6) The test solutions were prepared by adding the following, in order: 1.2 ml HEPES, 50 μl glucose solution, 1.5 ml RIND VII dispersion, 100 μl antibiotic solution, 100 μl cell suspension and 25 μl ETA solution. Cell control solutions contained all reagents except antibiotics. Background Controls consisted of both buffer and solution controls. The buffer control contained all reagents except antibiotics and cells. The solution control contained all reagents except cells.
(§7) Optical density readings (OD) were made at 635 nm at 0 minutes and after incubation at 37° C. for 30 minutes for all solutions, and the change (ΔOD) was determined. Table V below lists the results expressed as corrected percent inhibition of the reduction of RIND VII. The corrected percent inhibition was calculated by dividing the difference between ΔOD obtained from a Control test without antibiotic and the ΔOD of the test, by the ΔOD of the Control without antibiotic. All readings were corrected by subtracting readings of the appropriate background control.
Relative fluorescence was measured using a standard spectrophotometer modified to read at excitation of 540 nm and emission of 620 nm. The change (Δ) in relative fluorescence was determined after 30 minutes at 37° C. for several concentration levels of antibiotic.
Optical density measurements were obtained at 540 nm using a standard spectrophotometer and the change in optical density (ΔOD) was determined after 30 minutes at 37° C. The resulting data are shown in Table VII below for several concentrations of antibiotic. It is clear from the data that the composition of this example was useful for differentiating bacteria. […]

S. aureus (gram +) [3] = assay: inhibition of the reduction of RIND XXXV (Examples 8 and 9), S. aureus; type: cell-based, Staphylococcus aureus (ATCC 25923); settings: 50 μl of 10 mg/ml antibiotic premixed with 1 ml cells (septamycin with calcium chloride), 30 minutes, 37° C., average of two replicates
Protocol: as §1, §2, §3, §4

S. aureus (gram +) [4] = assay: inhibition of the reduction of RIND VII (solution assay, Examples 2-3), S. aureus; type: cell-based, Staphylococcus aureus (ATCC 25923); settings: 635 nm, 30 minutes, 37° C.
Protocol: as §1, §5
(§8) A dispersion containing a RIND compound was prepared by dissolving RIND VII from Table II above in N,N-dimethylformamide (DMF) at 16 mg compound per ml of solvent. An aliquot (250 μl) of the resulting solution was added to 500 μl of TRITON X-100 surfactant. This mixture was then added dropwise with stirring to 25 ml of 0.05 molar HEPES buffer. A solution containing a water-compatible RIND compound XXXV was prepared by dissolving the compound (16 mg/ml) in N,N-dimethylformamide which had been acidified with a 0.1% sulfuric acid solution.
(§9) The following materials were used in these examples: stock dispersion of RIND VII as described above, glucose (10% in water), trimethyl-1,4-benzoquinone ETA (1.5 mg/ml methanol), each antibiotic at 1, 5, and 10 mg/ml methanol. Microbial cells were grown as described above. The final approximate cell concentrations were: 1.4×10^7 cells/ml for E. coli and 2.4×10^7 cells/ml for S. aureus.
as §6, §7

E. coli (gram -) [5] = assay: inhibition of the reduction of RIND VII (solution assay, Examples 2-3), E. coli; type: cell-based, Escherichia coli (ATCC 25922); settings: 635 nm, 30 minutes, 37° C.
Protocol: as §1, §5, §8, §9, §6, §7

[6] = E1/2 (reduction potential) of the quinone nucleus of RIND compounds; type: physicochemical; settings: quinone nucleus with hydrogen in place of the side chain
Text: Examples of such nuclei are presented below. […] Preferably, the E1/2 is from about +100 mV to about +400 mV as measured in water, or from about -650 to about -300 mV as measured in acetonitrile. […] Further details of measuring the E1/2 are described below prior to Table I. The desired E1/2 is achieved by appropriate electron withdrawing groups on the CAR--nucleus, or by a strained fused ring attached to the nucleus or a combination of both.
A standard calomel electrode was used as a standard. Some E1/2 values (denoted by *) were measured in acetonitrile using a saturated calomel electrode as a standard. E1/2 values not available are denoted by "NA".

[7] = aqueous emulsion, DMF, TRITON X-100, sodium phosphate buffer pH 7, calomel electrode
[8] = (*) in acetonitrile, saturated calomel electrode

Structure (SMILES): COC1CCC(OC2C(C)C(O)(C(C)C(=O)O)OC(CC3CC(OC)C(C)C4(O3)OC(C)(C3CCC(C5CCC(C6OC(C)(O)C(C)C(OC)C6C)O5)O3)C(OC)C4C)C2(C)OC)OC1C (stereo not drawn) [Antibiotic A204]
- Corrected Percent Inhibition (E. coli (gram -) [1]): 3.6%
- differentiation of gram-positive and gram-negative bacteria [2]: useful for differentiation of gram-positive and gram-negative bacteria
- Corrected Percent Inhibition (S. aureus (gram +) [3]): 35.8%

Structure (SMILES): CC[C@@H](C(=O)[C@@H](C)[C@@H](O)[C@H](C)CCc1ccc(C)c(O)c1C(=O)O)[C@H]1O[C@](CC)([C@H]2CC[C@](O)(CC)[C@H](C)O2)C[C@@H]1C [Lasalocid, lasalocid]
- differentiating gram-positive and gram-negative bacteria [2]: effective in differentiating gram-positive and gram-negative bacteria
- Corrected Percent Inhibition (S. aureus (gram +) [4]; antibiotic 0.033 mg/ml): 35.2%
- Corrected Percent Inhibition (S. aureus (gram +) [4]; antibiotic 0.166 mg/ml): 50.9%
- Corrected Percent Inhibition (S. aureus (gram +) [4]; antibiotic 0.333 mg/ml): 60.1%
- Corrected Percent Inhibition (E. coli (gram -) [5]; antibiotic 0.033 mg/ml): 6.6%
- Corrected Percent Inhibition (E. coli (gram -) [5]; antibiotic 0.166 mg/ml): 10.5%
- Corrected Percent Inhibition (E. coli (gram -) [5]; antibiotic 0.333 mg/ml): 25.5%

Structure (SMILES): CC[C@@]1([C@@H]2O[C@@H]([C@H]3O[C@@](O)(CO)[C@H](C)C[C@@H]3C)C[C@@H]2C)CC[C@H]([C@]2(C)CC[C@]3(C[C@H](O)[C@@H](C)[C@@H]([C@@H](C)[C@@H](OC)[C@H](C)C(=O)O)O3)O2)O1 [Monensin, monensin A]
- differentiating gram-positive and gram-negative bacteria [2]: effective in differentiating gram-positive and gram-negative bacteria
- Corrected Percent Inhibition (S. aureus (gram +) [4]; antibiotic 0.033 mg/ml): 34.4%
- Corrected Percent Inhibition (S. aureus (gram +) [4]; antibiotic 0.166 mg/ml): 43.0%
- Corrected Percent Inhibition (S. aureus (gram +) [4]; antibiotic 0.333 mg/ml): 42.0%
- Corrected Percent Inhibition (E. coli (gram -) [5]; antibiotic 0.033 mg/ml): 5.1%
- Corrected Percent Inhibition (E. coli (gram -) [5]; antibiotic 0.166 mg/ml): No inhibition
- Corrected Percent Inhibition (E. coli (gram -) [5]; antibiotic 0.333 mg/ml): No inhibition

Structure (SMILES): CC(C1=C(CN(C)C(=O)Oc2ccc(N=Nc3ccc([N+](=O)[O-])cc3S(C)(=O)=O)c3c(NS(=O)(=O)c4cccc(S(N)(=O)=O)c4)cccc23)C(=O)C(C(C)c2ccc([N+](=O)[O-])cc2)=C(CN(C)C(=O)Oc2ccc(N=Nc3ccc([N+](=O)[O-])cc3S(C)(=O)=O)c3c(NS(=O)(=O)c4cccc(S(N)(=O)=O)c4)cccc23)C1=O)c1ccc([N+](=O)[O-])cc1 (stereo not drawn) [RIND II]
- E1/2 [6, 7]: +236 mV

Structure (SMILES): CN(CC1=C(c2ccccc2)C(=O)C(CN(C)C(=O)Oc2ccc(N=Nc3ccc([N+](=O)[O-])cc3S(C)(=O)=O)c3c(NS(=O)(=O)c4cccc(S(N)(=O)=O)c4)cccc23)=C(c2ccccc2)C1=O)C(=O)Oc1ccc(N=Nc2ccc([N+](=O)[O-])cc2S(C)(=O)=O)c2c(NS(=O)(=O)c3cccc(S(N)(=O)=O)c3)cccc12 [RIND IV]
- E1/2 [6, 8]: -460 mV

Structure (SMILES): CCCCCCCCCCNS(=O)(=O)c1ccc(C(C)C2=C(CN(C)C(=O)Oc3ccc(N=Nc4ccc([N+](=O)[O-])cc4S(C)(=O)=O)c4c(NS(=O)(=O)c5cccc(S(N)(=O)=O)c5)cccc34)C(=O)C(C(C)c3ccc(S(=O)(=O)NCCCCCCCCCC)cc3)=C(CN(C)C(=O)Oc3ccc(N=Nc4ccc([N+](=O)[O-])cc4S(C)(=O)=O)c4c(NS(=O)(=O)c5cccc(S(N)(=O)=O)c5)cccc34)C2=O)cc1 (stereo not drawn) [RIND I]
- E1/2 [6, 8]: -528 mV

Structure (SMILES): CN(CC1=C(c2ccc(C#N)cc2)C(=O)C2=C(C1=O)C1C=CC2CC1)C(=O)Oc1ccc(N=Nc2ccc([N+](=O)[O-])cc2S(C)(=O)=O)c2c(NS(=O)(=O)c3cccc(S(N)(=O)=O)c3)cccc12 (stereo not drawn) [RIND XVII]
- E1/2 [6, 7]: +240 mV

Structure (SMILES): CCCCCCCCCCNS(=O)(=O)c1ccc(C(C)C2=C(CN(C)C(=O)Oc3ccc4c(C)cc(=O)oc4c3)C(=O)C(C(C)c3ccc(S(=O)(=O)NCCCCCCCCCC)cc3)=C(CN(C)C(=O)Oc3ccc4c(C)cc(=O)oc4c3)C2=O)cc1 (stereo not drawn) [RIND XXII]
- E1/2 [6, 8]: -528 mV

Structure (SMILES): CCCCCCCCCCNS(=O)(=O)c1ccc(C(C)C2=C(CN(C)C(=O)Oc3ccc(N=Nc4cccc(S(N)(=O)=O)c4)c4c(NS(C)(=O)=O)cccc34)C(=O)C(C(C)c3ccc(S(=O)(=O)NCCCCCCCCCC)cc3)=C(CN(C)C(=O)Oc3ccc(N=Nc4cccc(S(N)(=O)=O)c4)c4c(NS(C)(=O)=O)cccc34)C2=O)cc1 (stereo not drawn) [RIND XXI]
- E1/2 [6, 8]: -528 mV

Structure (SMILES): CC1=C(C)C(=O)C(c2ccccc2)=C(CN(C)C(=O)Oc2ccc(N=Nc3ccc([N+](=O)[O-])cc3S(C)(=O)=O)c3c(NS(=O)(=O)c4cccc(S(N)(=O)=O)c4)cccc23)C1=O [RIND XXXVI]
- E1/2 [6, 7]: +144 mV

Structure (SMILES): CO[C@H]1C[C@@H](C[C@H]2O[C@@](O)([C@H](C)C(=O)O)[C@H](C)[C@H](OC)[C@@]2(C)O[C@H]2CC[C@@H](OC)[C@H](C)O2)O[C@]2(O[C@@](C)([C@@H]3CC[C@H]([C@H]4CC[C@H]([C@H]5O[C@](C)(O)[C@H](C)C[C@@H]5C)O4)O3)[C@H](OC)[C@H]2C)[C@@H]1C [Septamycin, septamycin]
- Corrected Percent Inhibition (E. coli (gram -) [1]): 52.3%
- differentiation of gram-positive and gram-negative bacteria [2]: useful for differentiation of gram-positive and gram-negative bacteria
- Corrected Percent Inhibition (S. aureus (gram +) [3]): 74.9%
